pEC50: −log10 of the molar value. Like-named read-outs stand apart in the source and are kept apart here.
Target: T1, EcR-RXR (EcR-LgBiT / RXR-SmBiT) (Drosophila melanogaster, UniProt P34021)
T1 construct: full-length EcR with C-terminal LgBiT (pFC34K-EcR) and RXR with C-terminal SmBiT (pFC36K-RXR), expressed in HEK293T cells; heterodimer; probably human RXR-alpha
T1 sequence (P34021 1-878): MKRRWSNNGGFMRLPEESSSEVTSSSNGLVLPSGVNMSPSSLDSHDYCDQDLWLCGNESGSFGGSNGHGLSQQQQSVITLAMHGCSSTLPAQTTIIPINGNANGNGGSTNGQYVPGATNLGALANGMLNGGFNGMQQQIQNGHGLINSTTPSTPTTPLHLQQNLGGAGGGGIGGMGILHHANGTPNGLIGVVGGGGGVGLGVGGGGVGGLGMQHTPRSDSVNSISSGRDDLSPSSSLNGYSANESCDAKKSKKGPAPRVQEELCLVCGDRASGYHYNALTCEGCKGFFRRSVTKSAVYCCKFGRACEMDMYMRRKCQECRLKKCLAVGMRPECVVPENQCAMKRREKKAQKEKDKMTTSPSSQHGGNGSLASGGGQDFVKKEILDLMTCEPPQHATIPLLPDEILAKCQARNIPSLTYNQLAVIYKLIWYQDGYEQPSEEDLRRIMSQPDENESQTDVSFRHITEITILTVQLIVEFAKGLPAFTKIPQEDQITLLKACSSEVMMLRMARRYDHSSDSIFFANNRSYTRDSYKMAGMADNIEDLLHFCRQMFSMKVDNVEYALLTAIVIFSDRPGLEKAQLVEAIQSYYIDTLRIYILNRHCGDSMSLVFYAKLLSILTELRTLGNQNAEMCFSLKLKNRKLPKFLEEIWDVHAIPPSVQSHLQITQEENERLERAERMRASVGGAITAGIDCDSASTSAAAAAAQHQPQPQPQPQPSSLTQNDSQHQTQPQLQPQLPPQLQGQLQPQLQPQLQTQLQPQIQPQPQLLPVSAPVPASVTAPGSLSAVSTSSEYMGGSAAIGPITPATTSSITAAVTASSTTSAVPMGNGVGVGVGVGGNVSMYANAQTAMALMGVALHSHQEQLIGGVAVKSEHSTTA
T1 sequence (P19793 1-462 partner): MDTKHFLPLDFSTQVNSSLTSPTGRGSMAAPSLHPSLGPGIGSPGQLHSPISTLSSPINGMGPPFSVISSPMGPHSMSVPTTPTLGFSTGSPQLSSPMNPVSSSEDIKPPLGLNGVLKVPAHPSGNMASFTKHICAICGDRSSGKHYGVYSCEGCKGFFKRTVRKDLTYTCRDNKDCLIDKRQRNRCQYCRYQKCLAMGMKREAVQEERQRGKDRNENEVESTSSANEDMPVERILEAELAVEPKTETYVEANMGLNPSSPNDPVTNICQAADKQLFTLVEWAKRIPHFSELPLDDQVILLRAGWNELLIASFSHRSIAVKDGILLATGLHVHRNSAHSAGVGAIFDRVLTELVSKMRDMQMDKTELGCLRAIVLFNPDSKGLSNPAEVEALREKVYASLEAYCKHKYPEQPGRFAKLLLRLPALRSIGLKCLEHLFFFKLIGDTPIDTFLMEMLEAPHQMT
Experiment: NanoBiT split-luciferase assay of ligand-induced EcR-RXR heterodimerization in live HEK293T cells
Format: cell-based

| pEC50 (read-out: EC50) | Structure (SMILES) | pEC50 |
| --- | --- | --- |
| 5.66 | CC(C)(O)CC[C@@H](O)[C@](C)(O)[C@H]1CC[C@@]2(O)C3=CC(=O)[C@@H]4C[C@@H](O)[C@@H](O)C[C@]4(C)[C@H]3CC[C@]12C [20E, 20-hydroxyecdysone] |  |
|  | Cc1cc(C)cc(C(=O)N(NC(=O)c2ccc3c(c2C)CCCO3)C(C)(C)C)c1 [CF, chromafenozide] | 5.32 |

From paper PMC8824665, “Rapid Assessment of Insect Steroid Hormone Entry Into Cultured Cells” (Frontiers in Physiology, 2022)
